Measurements taken from US20190204342A1, “METHODS AND USES OF MITOFUSINS” (NESTEC S.A., priority 2014, published 2019).

Columns and labels:
[1] = Hypoglycemic effect of metformin in high-fat diet fed control and Mfn1LKO mice (blood glucose); format: in vivo; settings: metformin 125 mg/kg injected after overnight fast; 8 weeks high-fat diet; Mfn1LKO vs control mice
Excerpt: 12 week old Control and Mfn1 LKO mice were fed for 8 weeks with a high-fat diet (D12492, Research Diets Inc., USA).

AMPK = AMPK activation in liver after metformin injection (western blot of markers CRTC2, elF2alpha, GAPDH); format: in vivo; settings: metformin 125 mg/kg; livers taken 90 minutes later; high-fat diet; Mfn1 LKO vs control mice
Description: 12 week old Control and Mfn1 LKO mice were fed for 8 weeks with a high-fat diet (D12492, Research Diets Inc., USA). Then, mice were fasted overnight and injected with either saline (as vehicle) or metformin (125 mg/kg). Mice were sacrificed 90 minutes later and livers were immediately extracted and frozen. Protein extracts were obtained and used for western blot analyses to test the markers of AMPK activation: CRTC2, elF2alpha and GAPDH.

mitochondrial Complex I = assay: Metformin inhibition of mitochondrial respiration (respirometry, metformin titrated); format: biochemical; settings: liver mitochondria from WT and Mfn1 LKO mice, malate, glutamate, ADP
Description: Freshly extracted mitochondria from WT and Mfn1LKO mice were homogenized in respiration medium and 2 mg of tissue were used for respirometry analyses. In them, complex I activity was stimulated by the addition of malate and glutamate. Then, ADP was added to achieve maximal coupled respiration and metformin was subsequently titrated.
Freshly extracted mitochondria from WT and Mfn1 LKO mice were resuspended in respiration medium and 100 μg of protein were used for respirometry analyses. Complex I activity was stimulated by the addition of malate and glutamate. Then, ADP was added to achieve maximal coupled respiration and metformin was subsequently titrated.

CN(C)C(=N)N=C(N)N [metformin, Metformin]
hypoglycemic effect (blood glucose levels) [1]: enhanced in Mfn1LKO mice
AMPK activation (markers of AMPK activation) (AMPK): enhanced AMPK activation
mitochondrial Complex I respiration inhibition (mitochondrial Complex I): inhibited more in the Mfn1 LKO mice than in the control mice
